From patent US12605442B2 (priority 2020, dated 2026)
Entries after “also recorded” stand apart in the source; their conditions may differ.

Tests used:
[1] = system: recombinant adeno-associated virus (AAV); details: reagent alone, room temperature, 2 hours
[2] = system: recombinant AAV; experiment: AAV particle size by dynamic light scattering; assay type: physicochemical
[3] = system: lentivirus; experiment: lentivirus inactivation by photosensitizer and UV light
[4] = system: MERS CoV; details: riboflavin 50 micromolar and UV light, six minutes, plasma; cited from earlier work
[5] = rats
[6] = system: SARS-CoV-2; experiment: SARS-CoV-2 inactivation in Mirasol device; details: 50 μM riboflavin

| Compound | infectious titer of recombinant AAV [1] | change in particle size distribution ([2]; 1.5 mM psoralen and UV light) | time to inactivation of lentivirus ([3]; 1.5 mM psoralen and UV light) | MERS coronavirus titers [4] | toxicity of residual riboflavin remaining after viral inactivation [5] | average hydrodynamic radius of viral aggregates ([2]; 50 μM riboflavin and UV light, later time points) | Log Reduction in viral titer ([6]; 100 Joules UV in 19 seconds, 100 mLs, limit of detection 1.0 Log per mL) | inactivation of SARS-CoV-2 ([6]; about 100 Joules UV, to the limit of detection) | time to complete inactivation of lentivirus ([3]; 50 μM riboflavin in the presence of UV light) [min] |
| --- | --- | --- | --- | --- | --- | --- | --- | --- | --- |
| O=c1ccc2cc3ccoc3cc2o1 [psoralen] | reduce the infectious titer | No significant change in particle size distribution | approximately 2 hours |  |  |  |  |  |  |
| Cc1cc2nc3c(=O)[nH]c(=O)nc-3n(C[C@H](O)[C@H](O)[C@H](O)CO)c2cc1C [riboflavin] | reduce the infectious titer |  |  | reduction | does not induce toxicity | greater than 60 nm | greater than 4.2 Log | Complete inactivation; also recorded: completely inactivated | ≤ 20 |
